The values that follow come from US20260207578A1, “COMPOUND BASED ON SULFUR/OXYGEN SUBSTITUTED GLUTARIMIDE-BASED ISOINDOLINONE SKELETON AND USE THEREOF” (Gluetacs Therapeutics (Shanghai) Co., LTD., priority 2022, published 2026).

What is called IC50 is the point on the concentration scale where inhibition reaches its midpoint. A higher IC50 goes with weaker potency.

The target of one assay is T1, IKZF2 (Homo sapiens, UniProt Q96SW2+Q9UKS7).
T1 construct: endogenous in cells; host or cells: human PBMCs (Milecell Biotechnologies)
T1 sequence (Q9UKS7 whole entry): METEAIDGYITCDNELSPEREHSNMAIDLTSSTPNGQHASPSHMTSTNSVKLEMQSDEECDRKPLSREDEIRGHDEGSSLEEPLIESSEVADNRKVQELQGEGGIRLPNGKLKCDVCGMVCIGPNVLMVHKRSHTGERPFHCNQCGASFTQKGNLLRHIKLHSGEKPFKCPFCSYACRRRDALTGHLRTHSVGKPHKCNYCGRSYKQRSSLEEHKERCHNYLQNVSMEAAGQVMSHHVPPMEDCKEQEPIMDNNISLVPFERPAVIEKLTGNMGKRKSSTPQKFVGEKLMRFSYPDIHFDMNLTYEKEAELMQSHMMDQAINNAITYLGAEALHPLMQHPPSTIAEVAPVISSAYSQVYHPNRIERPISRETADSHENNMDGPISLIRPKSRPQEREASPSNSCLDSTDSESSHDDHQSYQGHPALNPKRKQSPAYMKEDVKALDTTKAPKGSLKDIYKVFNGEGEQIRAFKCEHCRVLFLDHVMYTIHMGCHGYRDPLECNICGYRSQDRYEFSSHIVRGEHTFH
T1 sequence (Q96SW2 whole entry): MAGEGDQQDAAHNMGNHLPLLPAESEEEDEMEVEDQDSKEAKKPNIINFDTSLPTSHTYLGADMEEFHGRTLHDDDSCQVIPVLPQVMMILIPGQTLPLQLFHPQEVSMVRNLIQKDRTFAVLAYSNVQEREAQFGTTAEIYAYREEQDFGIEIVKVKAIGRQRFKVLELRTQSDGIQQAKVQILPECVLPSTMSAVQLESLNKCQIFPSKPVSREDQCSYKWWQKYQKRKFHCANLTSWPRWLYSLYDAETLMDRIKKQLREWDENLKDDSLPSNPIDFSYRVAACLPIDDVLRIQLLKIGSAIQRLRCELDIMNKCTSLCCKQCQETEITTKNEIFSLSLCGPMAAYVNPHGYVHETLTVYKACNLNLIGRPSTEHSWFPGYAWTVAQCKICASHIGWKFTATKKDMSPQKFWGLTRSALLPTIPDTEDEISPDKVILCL
T1 sequence (Q16531 whole entry partner): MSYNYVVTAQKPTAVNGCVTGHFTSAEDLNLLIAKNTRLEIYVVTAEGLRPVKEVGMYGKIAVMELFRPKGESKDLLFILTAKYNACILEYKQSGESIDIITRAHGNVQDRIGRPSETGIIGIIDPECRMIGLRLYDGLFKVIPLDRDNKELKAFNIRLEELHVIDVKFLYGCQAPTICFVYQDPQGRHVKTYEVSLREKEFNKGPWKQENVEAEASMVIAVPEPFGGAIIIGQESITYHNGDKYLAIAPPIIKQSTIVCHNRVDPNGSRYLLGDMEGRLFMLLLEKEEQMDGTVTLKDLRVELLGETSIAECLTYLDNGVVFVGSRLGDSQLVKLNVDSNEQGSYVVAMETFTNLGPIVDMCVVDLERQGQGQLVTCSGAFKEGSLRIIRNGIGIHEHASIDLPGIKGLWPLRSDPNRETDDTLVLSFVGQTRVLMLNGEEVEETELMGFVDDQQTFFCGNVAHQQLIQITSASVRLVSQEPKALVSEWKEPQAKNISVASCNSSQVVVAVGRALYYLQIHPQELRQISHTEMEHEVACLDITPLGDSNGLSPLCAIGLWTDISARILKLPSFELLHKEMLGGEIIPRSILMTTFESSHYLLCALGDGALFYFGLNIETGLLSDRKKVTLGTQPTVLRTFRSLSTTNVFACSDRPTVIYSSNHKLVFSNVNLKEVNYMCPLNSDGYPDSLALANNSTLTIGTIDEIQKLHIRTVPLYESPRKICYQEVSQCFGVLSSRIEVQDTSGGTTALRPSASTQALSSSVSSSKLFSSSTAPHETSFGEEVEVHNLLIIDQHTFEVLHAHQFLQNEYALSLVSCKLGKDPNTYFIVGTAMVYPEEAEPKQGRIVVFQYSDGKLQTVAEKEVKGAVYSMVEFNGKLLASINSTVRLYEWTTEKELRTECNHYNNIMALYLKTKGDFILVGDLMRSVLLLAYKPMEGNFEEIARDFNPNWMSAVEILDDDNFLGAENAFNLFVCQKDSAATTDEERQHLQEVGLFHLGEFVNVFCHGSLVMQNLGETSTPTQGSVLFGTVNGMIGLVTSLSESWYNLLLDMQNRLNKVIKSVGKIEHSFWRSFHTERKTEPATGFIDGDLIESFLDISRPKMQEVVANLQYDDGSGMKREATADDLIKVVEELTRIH
Nature of the assay: Western-blot assay, substrate protein in hPBMCs. Particulars: hPBMC cells, 24 hours, tested at 50 nM and 500 nM, table does not say which. It is filed as cell-based. The method in brief: (§1)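 Thawed hPBMCs, 1×10^6 cells/mL; 24 h compound; RIPA + phosphatase inhibitor lysis, BCA-normalised loading, SDS-PAGE, NC transfer, immunodetection. Bands vs internal control → % remaining; DC50 = concentration at 50% of DMSO band intensity.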

In the next assay the target is T2, GSPT1 (Homo sapiens, UniProt P15170+Q96SW2).
T2 construct: endogenous in cells; host or cells: human PBMCs (Milecell Biotechnologies)
T2 sequence (P15170 whole entry): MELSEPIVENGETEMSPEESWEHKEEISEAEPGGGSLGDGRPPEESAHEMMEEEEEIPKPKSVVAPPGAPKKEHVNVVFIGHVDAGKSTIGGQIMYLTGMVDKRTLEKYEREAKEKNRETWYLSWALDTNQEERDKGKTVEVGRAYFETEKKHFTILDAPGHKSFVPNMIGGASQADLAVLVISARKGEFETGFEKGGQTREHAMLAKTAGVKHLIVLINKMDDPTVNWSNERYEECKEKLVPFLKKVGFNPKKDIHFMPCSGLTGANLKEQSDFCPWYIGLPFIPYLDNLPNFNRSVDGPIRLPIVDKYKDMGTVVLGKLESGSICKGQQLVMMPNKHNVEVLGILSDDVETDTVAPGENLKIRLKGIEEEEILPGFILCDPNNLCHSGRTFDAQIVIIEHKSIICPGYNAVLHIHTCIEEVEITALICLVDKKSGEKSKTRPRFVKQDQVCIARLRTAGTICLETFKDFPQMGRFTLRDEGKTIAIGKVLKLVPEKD
T2 sequence (Q96SW2 whole entry): as the sequence (Q96SW2 whole entry) above
T2 sequence (Q16531 whole entry partner): as the sequence (Q16531 whole entry partner) above
Nature of the assay: Western-blot assay, substrate protein in hPBMCs. Particulars: hPBMC cells, 24 hours, tested at 50 nM and 500 nM, table does not say which. It counts as cell-based. The method in brief: as §1

The target of another assay is T3, Wee1 (Homo sapiens, UniProt P30291+Q96SW2).
T3 construct: endogenous in cells; host or cells: human PBMCs (Milecell Biotechnologies)
T3 sequence (P30291 whole entry): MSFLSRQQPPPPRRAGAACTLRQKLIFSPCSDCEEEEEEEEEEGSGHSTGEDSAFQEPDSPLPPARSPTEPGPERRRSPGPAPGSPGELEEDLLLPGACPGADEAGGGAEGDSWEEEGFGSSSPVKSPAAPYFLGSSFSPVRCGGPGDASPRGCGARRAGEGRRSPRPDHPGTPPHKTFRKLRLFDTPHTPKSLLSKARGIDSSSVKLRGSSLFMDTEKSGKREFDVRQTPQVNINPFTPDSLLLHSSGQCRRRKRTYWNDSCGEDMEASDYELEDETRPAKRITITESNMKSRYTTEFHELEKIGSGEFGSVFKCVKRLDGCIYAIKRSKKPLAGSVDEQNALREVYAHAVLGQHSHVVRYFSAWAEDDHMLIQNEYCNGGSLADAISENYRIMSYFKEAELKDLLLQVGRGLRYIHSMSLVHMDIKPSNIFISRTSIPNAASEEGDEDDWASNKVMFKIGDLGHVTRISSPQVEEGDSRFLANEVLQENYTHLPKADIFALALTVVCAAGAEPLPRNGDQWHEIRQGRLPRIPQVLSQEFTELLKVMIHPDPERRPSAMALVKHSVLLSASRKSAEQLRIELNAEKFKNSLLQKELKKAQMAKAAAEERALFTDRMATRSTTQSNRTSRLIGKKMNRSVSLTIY
T3 sequence (Q96SW2 whole entry): as the sequence (Q96SW2 whole entry) above
T3 sequence (Q16531 whole entry partner): as the sequence (Q16531 whole entry partner) above
The experiment in a line: Western-blot assay, substrate protein in hPBMCs. It counts as cell-based. The following applies: hPBMC cells, 24 hours, tested at 50 nM and 500 nM, table does not say which. The method in brief: as §1

In assay [1] the target is T4, human Cereblon WT GST-tagged protein (Homo sapiens, UniProt Q96SW2).
T4 construct: purchased CISBIO 64BDCRBNPEH
T4 sequence (Q96SW2 whole entry): as the sequence (Q96SW2 whole entry) above
Nature of the assay: CRBN-binding affinity, HTRF (CEREBLON BINDING kit). Particulars: displacement of Thalidomide-Re reagent, 3 hours at room temperature. The method in brief: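 Compounds displace a thalidomide-Re tracer from GST-tagged human Cereblon WT, detected with an Eu-labelled anti-GST antibody by time-resolved fluorescence. Signal at 620 nm was normalised against solvent and blank controls.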

Another assay has as its target T5, CK1α (Homo sapiens, UniProt P48729+Q96SW2).
T5 construct: endogenous in cells; host or cells: human PBMCs (Milecell Biotechnologies)
The experiment in a line: Western-blot assay, substrate protein in hPBMCs. It counts as cell-based. Particulars: hPBMC cells, 24 hours, tested at 50 nM and 500 nM, table does not say which. Put shortly: as §1

The target in another assay is T6, IKZF1 (Homo sapiens, UniProt Q13422+Q96SW2).
T6 construct: endogenous in cells; host or cells: human PBMCs (Milecell Biotechnologies)
T6 sequence (Q13422 whole entry): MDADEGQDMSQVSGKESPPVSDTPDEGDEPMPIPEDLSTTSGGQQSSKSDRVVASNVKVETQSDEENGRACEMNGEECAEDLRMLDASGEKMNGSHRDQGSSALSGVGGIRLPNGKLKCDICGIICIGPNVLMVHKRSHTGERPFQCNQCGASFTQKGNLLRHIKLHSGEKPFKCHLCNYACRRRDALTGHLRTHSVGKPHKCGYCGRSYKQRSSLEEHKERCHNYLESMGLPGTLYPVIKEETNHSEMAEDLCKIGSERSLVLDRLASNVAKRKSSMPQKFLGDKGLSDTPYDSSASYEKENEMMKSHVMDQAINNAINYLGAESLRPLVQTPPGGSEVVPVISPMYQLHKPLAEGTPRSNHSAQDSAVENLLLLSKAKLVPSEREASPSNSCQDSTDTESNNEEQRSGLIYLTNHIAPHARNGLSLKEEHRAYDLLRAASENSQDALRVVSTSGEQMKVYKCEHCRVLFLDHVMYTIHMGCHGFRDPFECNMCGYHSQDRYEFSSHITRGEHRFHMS
T6 sequence (Q96SW2 whole entry): as the sequence (Q96SW2 whole entry) above
T6 sequence (Q16531 whole entry partner): as the sequence (Q16531 whole entry partner) above
Nature of the assay: Western-blot assay, substrate protein in hPBMCs. It counts as cell-based. The following applies: hPBMC cells, 24 hours, tested at 50 nM and 500 nM, table does not say which. The method, then:
The effect of the compounds of the present disclosure on the expression of target proteins in cells was detected using conventional Western blot analysis.
Human peripheral blood mononuclear cells (hPBMCs) at a density of 1×10^6 cells/mL were thawed according to the PBMC Recovery Protocol (Milecell Biotechnologies Inc, Shanghai). The cells were then treated with the compounds of the present disclosure (including the compounds listed in Tables 1 and 2, and the Examples A1-A20 and 1-116 compounds) at concentrations of 50 nM and 500 nM.
Controls included a negative control (DMSO) and a positive control (the commercial immunomodulatory drug lenalidomide), both processed following the identical experimental protocol as the compounds of the present disclosure. After 24 hours of compounds treatment, cells were harvested and lysed in RIPA protein lysate containing phosphatase inhibitors on ice for 30-60 min, followed by centrifugation. The supernatant was aspirated as the extracted total cell protein. The protein concentration of the supernatant was determined using the conventional BCA (Bicinchoninic Acid) assay. The supernatant was then mixed with 4× SDS sample loading buffer, denatured at 95° C. for 5 minutes, and then subjected to SDS-PAGE electrophoresis on a polyacrylamide gel. Proteins were then transferred to a nitrocellulose (NC) membrane, blocked at room temperature for 1-2 h, and processed for antibody incubation and detection according to the manufacturer's instructions (Cell Signaling Technology).
Half-Maximal Degradation Concentration value (the drug concentration required for degrading proteins by 50%, abbreviated as DC50) reads method: comparing the grayscale values of Western blot bands from drug-treated samples with those from blank DMSO-treated controls, and identifying the drug concentration range at which the grayscale value is half that of the DMSO-treated control bands.
DC50 values can be calculated using ImageJ software to measure grayscale values of Western blot bands from drug-treated samples. The concentration-response curve is fitted to estimate the drug concentration corresponding to half the grayscale value.
Target protein remaining (%) refers to the percentage of target protein remaining in hPBMC cells after treatment with protein degrader compounds.
Calculation method for protein remaining (%): Use ImageJ software to measure grayscale values of Western blot bands from drug (protein degrader)-treated samples. The grayscale value of drug-treated bands is divided by that of internal control protein bands, and the resulting quotient is normalized to obtain the relative percentage of remaining target protein after protein degrader treatment.
Target protein degradation rate (%)=100%−target protein remaining (%).

T5 sequence (P48729 whole entry): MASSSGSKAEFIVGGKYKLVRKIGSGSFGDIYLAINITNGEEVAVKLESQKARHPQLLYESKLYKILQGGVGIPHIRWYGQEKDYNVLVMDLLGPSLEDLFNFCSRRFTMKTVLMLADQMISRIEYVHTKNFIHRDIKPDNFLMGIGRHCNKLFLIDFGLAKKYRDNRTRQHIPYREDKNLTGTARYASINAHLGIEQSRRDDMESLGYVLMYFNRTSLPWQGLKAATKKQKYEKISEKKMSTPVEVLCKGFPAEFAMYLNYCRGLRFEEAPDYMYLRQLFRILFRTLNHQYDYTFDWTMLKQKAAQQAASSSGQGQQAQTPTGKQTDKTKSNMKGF
T5 sequence (Q96SW2 whole entry): as the sequence (Q96SW2 whole entry) above
T5 sequence (Q16531 whole entry partner): as the sequence (Q16531 whole entry partner) above

With `O=C1CCC(N2Cc3cc(OC4CCN(Cc5ccccc5-c5ccc(Cl)cc5)CC4)ccc3C2=O)C(=O)N1` (stereo not drawn) [GT-06193, 3-(5-((1-((4′-chloro-[1,1′-biphenyl]-2-yl)methyl)piperidin-4-yl)oxy)-1-oxoisoindolin-2-yl)piperidine-2,6-dione], the “substrate protein remaining %” value at IKZF2, on GSPT1 and on Wee1 was “A (0%≤ substrate protein remaining % ≤80%)” in each case. In assay [1], this compound returned an IC50 of 1000 to 1900 nM.

Regarding `O=C1CCC(N2Cc3cc(SC4CCN(C(c5ccccc5)c5ccccc5)C4)ccc3C2=O)C(=O)N1` (stereo not drawn) [GT-06196, 3-(5-((1-benzhydrylpyrrolidin-3-yl)thio)-1-oxoisoindolin-2-yl)piperidine-2,6-dione], the “substrate protein remaining %” value at IKZF2, at GSPT1 and at CK1α was “A (0%≤ substrate protein remaining % ≤80%)” throughout. In addition, in assay [1], the IC50 fell in the range of 500 to 1000 nM.

For the compound `O=C1CCC(N2Cc3cc(SC4CN(Cc5cccc(-c6ccc(Cl)cc6)c5)C4)ccc3C2=O)C(=O)N1` (stereo not drawn) [GT-06225, 3-(5-((1-((4′-chloro-[1,1′-biphenyl]-3-yl)methyl)azetidin-3-yl)thio)-1-oxoisoindolin-2-yl)piperidine-2,6-dione], the “substrate protein remaining %” value at IKZF1 and at GSPT1 was “A (0%≤ substrate protein remaining % ≤80%)” in each case. This compound displayed an IC50 in assay [1] of less than 500 nM.

As to `O=C1CCC(N2Cc3cc(SC4CN(Cc5ccc(-c6ccc(Cl)cc6)cc5)C4)ccc3C2=O)C(=O)N1` (stereo not drawn) [GT-06226, 3-(5-((1-((4′-chloro-[1,1′-biphenyl]-4-yl)methyl)azetidin-3-yl)thio)-1-oxoisoindolin-2-yl)piperidine-2,6-dione], the “substrate protein remaining %” value on IKZF1 and on Wee1 was “A (0%≤ substrate protein remaining % ≤80%)” in each case. Besides, the IC50 in assay [1] is 500 to 1000 nM.

In the case of `O=C1CCC(N2Cc3cc(SC4CN(CC5=C(c6ccc(F)cc6)CCCC5)C4)ccc3C2=O)C(=O)N1` (stereo not drawn) [GT-06301, 3-(5-((1-((4′-fluoro-3,4,5,6-tetrahydro-[1,1′-biphenyl]-2-yl)methyl)azetidin-3-yl)thio)-1-oxoisoindolin-2-yl)piperidine-2,6-dione], the “substrate protein remaining %” value on IKZF2, on GSPT1 and at Wee1 was “A (0%≤ substrate protein remaining % ≤80%)” each time. Further, the IC50 in assay [1] was less than 500 nM.

As to `O=C1CCC(N2Cc3cc(SC4CN(C(c5ccccc5)c5ccccn5)C4)ccc3C2=O)C(=O)N1` (stereo not drawn) [GT-06518, 3-(1-oxo-5-((1-(phenyl(pyridin-2-yl)methyl)azetidin-3-yl)thio)isoindolin-2-yl)piperidine-2,6-dione], the “substrate protein remaining %” value on IKZF2, on GSPT1 and on CK1α was “A (0%≤ substrate protein remaining % ≤80%)” each time. This compound registered an IC50 in assay [1] of less than 500 nM.

As to `O=C1CCC(N2Cc3cc(OC4CN(C(c5ccccc5)c5ccccn5)C4)ccc3C2=O)C(=O)N1` (stereo not drawn) [GT-06559, 3-(1-oxo-5-((1-(phenyl(pyridin-2-yl)methyl)azetidin-3-yl)oxy)isoindolin-2-yl)piperidine-2,6-dione], the “substrate protein remaining %” value at IKZF2, on GSPT1, at Wee1 and at CK1α was “A (0%≤ substrate protein remaining % ≤80%)” each time. In addition, the half-inhibitory concentration (IC50) in assay [1] is less than 500 nM.

For the compound `CC1(C)CCC(CN2CC3CC(Sc4ccc5c(c4)CN(C4CCC(=O)NC4=O)C5=O)CC3C2)=C(c2ccc(Cl)cc2)C1` (stereo not drawn) [GT-06813, 3-(5-((2-((4′-chloro-5,5-dimethyl-3,4,5,6-tetrahydro-[1,1′-biphenyl]-2-yl)methyl)octahydro-cyclopenta[c]pyrrol-5-yl)thio)-1-oxoisoindolin-2-yl)piperidine-2,6-dione], the “substrate protein remaining %” value on IKZF2, on GSPT1 and on Wee1 was “A (0%≤ substrate protein remaining % ≤80%)” each time. In assay [1], this compound came in with a half-maximal inhibitory concentration (IC50) of 1000 to 1900 nM.

For the compound `CC1(C)CCC(C(=O)N2CCC(Oc3ccc4c(c3)CN(C3CCC(=O)NC3=O)C4=O)C2)=C(c2ccc(Cl)cc2)C1` (stereo not drawn) [GT-06816, 3-(5-((1-(4′-chloro-5,5-dimethyl-3,4,5,6-tetrahydro-[1,1′-biphenyl]-2-carbonyl)pyrrolidin-3-yl)oxy)-1-oxoisoindolin-2-yl)piperidine-2,6-dione], the “substrate protein remaining %” value at IKZF2, on GSPT1, on Wee1 and at CK1α was “A (0%≤ substrate protein remaining % ≤80%)” each time. In assay [1], this compound had an IC50 of less than 500 nM.

For the compound `O=C1CCC(N2Cc3cc(SC4CC5CN(Cc6ccccc6-c6ccc(Cl)cc6)CC5C4)ccc3C2=O)C(=O)N1` (stereo not drawn) [GT-06914, 3-(5-((2-((4′-chloro-[1,1′-biphenyl]-2-yl)methyl)octahydrocyclopenta[c]pyrrol-5-yl)thio)-1-oxoisoindolin-2-yl)piperidine-2,6-dione], the “substrate protein remaining %” value on IKZF2 and at Wee1 was “A (0%≤ substrate protein remaining % ≤80%)” in each case. In addition, the half-inhibitory concentration (IC50) in assay [1] is 1000 to 1900 nM.

In the case of `O=C1CCC(N2Cc3cc(SC4CC5(CCN(C(c6ccccc6)c6ccccc6)CC5)C4)ccc3C2=O)C(=O)N1` (stereo not drawn) [GT-06920, 3-(5-((7-benzhydryl-7-azaspiro[3.5]nonan-2-yl)thio)-1-oxoisoindolin-2-yl)piperidine-2,6-dione], the “substrate protein remaining %” value on IKZF1 and on Wee1 was “A (0%≤ substrate protein remaining % ≤80%)” each time. This compound came in with an IC50 in assay [1] of less than 500 nM.

In the case of `O=C1CCC(N2Cc3cc(SC4C[C@@H]5CN(C(=O)c6ccccc6-c6ccc(Cl)cc6)C[C@@H]5C4)ccc3C2=O)C(=O)N1` (stereo partly drawn) [GT-07024, 3-(5-(((3aR,6aS)-2-(4′-chloro-[1,1′-biphenyl]-2-carbonyl)octahydro-cyclopenta[c]pyrrol-5-yl)thio)-1-oxoisoindolin-2-yl)piperidine-2,6-dione], the “substrate protein remaining %” value on IKZF2 and on Wee1 was “A (0%≤ substrate protein remaining % ≤80%)” in each case. This compound also came in with an IC50 in assay [1] of less than 500 nM.

Regarding `CC1(C)CCC(C(=O)N2C[C@H]3CC(Oc4ccc5c(c4)CN(C4CCC(=O)NC4=O)C5=O)C[C@@H]3C2)=C(c2ccc(Cl)cc2)C1` (stereo partly drawn) [GT-07025, 3-(5-(((3aS,6aS)-2-(4′-chloro-5,5-dimethyl-3,4,5,6-tetrahydro-[1,1′-biphenyl]-2-carbonyl)octahydro-cyclopenta[c]pyrrol-5-yl)oxy)-1-oxoisoindolin-2-yl)piperidine-2,6-dione], the “substrate protein remaining %” value on IKZF2 and on CK1α was “A (0%≤ substrate protein remaining % ≤80%)” throughout. Also, the half-inhibitory concentration (IC50) in assay [1] is less than 500 nM.
